From patent US20250034136A1 (Nimbus Wadjet, Inc., priority 2023, published 2025)
pEC50, pIC50: −log10 of the molar value. Read-outs that look alike come from different tables or passages of the source.

Experiments:
[1] = system: p21 induction in HCT116 cells; test: p21 induction in HCT116 cells; assay type: cell-based; settings: Homo sapiens, HCT-116, 24 h, read-out: P21_EC50
How it was run: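 EC50 from non-linear curve fit of p21 immunofluorescence (800 nm), with GAPDH (700 nm) read alongside. DMSO and a reference WRN inhibitor served as low and high controls. Cells (2,000/well) got 11 compound concentrations in duplicate for 24 h at 37 °C.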

[2] = target: WRN (BV08), human Werner helicase (Uniprot Q14191, amino acids 517-1235 with L1074F point mutation) (Homo sapiens (Human), UniProt Q14191, L1074F); test: WRN (BV08) ADP-Glo assay; assay type: biochemical; settings: class symbols A-E, read-out: ADP-Glo_hWRN_IC50
[3] = HCT116 cells, 24 h compound incubation

WRN (BV08), human Werner helicase (Uniprot Q14191, amino acids 517-1235 with L1074F point mutation), sequence (Q14191 other isoform, or with tags, fused parts or gaps L1074F (already in the parent)): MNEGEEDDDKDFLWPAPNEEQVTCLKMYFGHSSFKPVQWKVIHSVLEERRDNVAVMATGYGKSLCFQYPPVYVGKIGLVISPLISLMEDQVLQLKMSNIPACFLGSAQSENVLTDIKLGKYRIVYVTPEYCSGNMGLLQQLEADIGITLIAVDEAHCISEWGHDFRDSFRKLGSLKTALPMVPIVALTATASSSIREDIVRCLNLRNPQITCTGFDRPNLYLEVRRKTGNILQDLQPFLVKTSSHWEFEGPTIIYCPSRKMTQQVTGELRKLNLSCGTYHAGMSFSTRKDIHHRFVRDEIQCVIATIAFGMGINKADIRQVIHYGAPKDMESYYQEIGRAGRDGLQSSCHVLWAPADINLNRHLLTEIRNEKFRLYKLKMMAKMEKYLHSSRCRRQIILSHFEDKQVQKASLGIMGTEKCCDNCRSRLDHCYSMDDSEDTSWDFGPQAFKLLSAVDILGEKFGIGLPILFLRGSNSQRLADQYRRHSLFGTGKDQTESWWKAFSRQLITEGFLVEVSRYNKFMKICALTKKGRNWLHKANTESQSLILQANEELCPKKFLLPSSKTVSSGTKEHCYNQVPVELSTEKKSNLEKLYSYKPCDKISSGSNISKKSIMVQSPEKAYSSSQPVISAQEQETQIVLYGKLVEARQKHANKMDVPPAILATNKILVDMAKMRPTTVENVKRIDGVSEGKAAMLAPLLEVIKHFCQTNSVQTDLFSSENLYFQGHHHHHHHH

SMILES | pEC50 [1, 3] | pIC50 [2] | pEC50 [1]
CCc1c(N2CCN(C(=O)c3ncnc(C)c3O)[C@H](C)C2)c(=O)c2nc(N(C)C)cnc2n1CC(=O)Nc1ccc(C(F)(F)F)cc1Cl [I-57, (R)-N-(2-chloro-4-(trifluoromethyl)phenyl)-2-(2-(dimethylamino)-6-ethyl-7-(4-(5-hydroxy-6-methylpyrimidine-4-carbonyl)-3-methylpiperazin-1-yl)-8-oxopyrido[2,3-b]pyrazin-5(8H)-yl)acetamide] | 5.70 to 6.30 | 7.30 to 8.30 | –
CCc1c(N2CCN(C(=O)c3ncccc3O)CC2)c(=O)c2ncc(C)nc2n1CC(=O)Nc1ccc(C(F)(F)F)cc1Cl [I-3, N-(2-chloro-4-(trifluoromethyl)phenyl)-2-(6-ethyl-7-(4-(3-hydroxypicolinoyl)piperazin-1-yl)-3-methyl-8-oxopyrido[2,3-b]pyrazin-5(8H)-yl)acetamide] | < 5.30 | 7.30 to 8.30 | –
CCc1c(N2CCN(C(=O)c3ncnc(C)c3O)CC2)c(=O)c2nc(N(C)C(C)C)cnc2n1CC(=O)Nc1ccc(C(F)(F)F)cc1Cl [I-175, N-[2-chloro-4-(trifluoromethyl)phenyl]-2-{6-ethyl-7-[4-(5-hydroxy-6-methylpyrimidine-4-carbonyl)piperazin-1-yl]-2-[methyl(propan-2-yl)amino]-8-oxo-5H,8H-pyrido[2,3-b]pyrazin-5-yl}acetamide] | 5.30 to 5.70 | 7.30 to 8.30 | –
CCc1c(N2CCN(C(=O)c3ccnc(OC)c3O)CC2)c(=O)c2ncc(C)nc2n1CC(=O)Nc1ccc(C(F)(F)F)cc1Cl [I-4, N-(2-chloro-4-(trifluoromethyl)phenyl)-2-(6-ethyl-7-(4-(3-hydroxy-2-methoxyisonicotinoyl)piperazin-1-yl)-3-methyl-8-oxopyrido[2,3-b]pyrazin-5(8H)-yl)acetamide] | < 5.30 | 7.30 to 8.30 | –
CCc1c(N2CCN(C(=O)c3ncnc(C)c3O)CC2)c(=O)c2nc(OC(F)F)cnc2n1CC(=O)Nc1ccc(C(F)(F)F)cc1Cl [I-26, N-(2-chloro-4-(trifluoromethyl)phenyl)-2-(2-(difluoromethoxy)-6-ethyl-7-(4-(5-hydroxy-6-methylpyrimidine-4-carbonyl)piperazin-1-yl)-8-oxopyrido[2,3-b]pyrazin-5(8H)-yl)acetamide] | < 5.30 | 6.30 to 7.00 | –
CCc1c(N2CCN(C(=O)c3ncnc(C)c3O)CC2)c(=O)c2nc(N(C)C)cnc2n1CC(=O)Nc1ccc(C(F)(F)F)cc1Cl [I-14, N-(2-chloro-4-(trifluoromethyl)phenyl)-2-(2-(dimethylamino)-6-ethyl-7-(4-(5-hydroxy-6-methylpyrimidine-4-carbonyl)piperazin-1-yl)-8-oxopyrido[2,3-b]pyrazin-5(8H)-yl)acetamide] | – | 7.30 to 8.30 | 5.70 to 6.30

More lines, main results first:

pEC50 [1, 3] | pIC50 [2] | SMILES | pEC50 [1]
> 6.30 | 7.30 to 8.30 | CCc1c(N2CCN(C(=O)c3ncnc(C)c3O)[C@H]3CC[C@@H]32)c(=O)c2nc(N3CC(F)(F)C3)cnc2n1CC(=O)Nc1ccc(C(F)(F)F)cc1Cl [I-245, N-[2-chloro-4-(trifluoromethyl)phenyl]-2-[2-(3,3-difluoroazetidin-1-yl)-6-ethyl-7-[(1S,6S)-5-(5-hydroxy-6-methylpyrimidine-4-carbonyl)-2,5-diazabicyclo[4.2.0]octan-2-yl]-8-oxo-5H,8H-pyrido[2,3-b]pyrazin-5-yl]acetamide] | –
< 5.30 | 6.30 to 7.00 | CCc1c(N2CCN(C(=O)c3ncnc(C)c3O)[C@@H]3CC(F)(F)C[C@H]32)c(=O)c2nc(N(C)C)cnc2n1CC(=O)Nc1ccc(C(F)(F)F)cc1Cl (single isomer, unassigned) [I-297, N-(2-chloro-4-(trifluoromethyl)phenyl)-2-(7-(6,6-difluoro-4-(5-hydroxy-6-methylpyrimidine-4-carbonyl)octahydro-1H-cyclopenta[b]pyrazin-1-yl)-2-(dimethylamino)-6-ethyl-8-oxopyrido[2,3-b]pyrazin-5(8H)-yl)acetamide] | –
> 6.30 | 7.30 to 8.30 | CCc1c(N2CCN(C(=O)c3ncnc(C)c3O)[C@H]3CC[C@@H]32)c(=O)c2nc(N(C)C3CCC3O)cnc2n1CC(=O)Nc1ccc(C(F)(F)F)cc1Cl (stereo partly drawn) [I-293, N-[2-chloro-4-(trifluoromethyl)phenyl]-2-{6-ethyl-7-[(1S,6S)-5-(5-hydroxy-6-methylpyrimidine-4-carbonyl)-2,5-diazabicyclo[4.2.0]octan-2-yl]-2-[(2-hydroxycyclobutyl)(methyl)amino]-8-oxo-5H,8H-pyrido[2,3-b]pyrazin-5-yl}acetamide] | –
> 6.30 | 7.30 to 8.30 | CCc1c(N2CCN(C(=O)c3c(OC)ncc(C4CC4)c3O)[C@H]3CC[C@@H]32)c(=O)c2nc(N(C)C)cnc2n1CC(=O)Nc1ccc(C(F)(F)F)cc1Cl [I-286, N-[2-chloro-4-(trifluoromethyl)phenyl]-2-{7-[(1S,6S)-5-(5-cyclopropyl-4-hydroxy-2-methoxypyridine-3-carbonyl)-2,5-diazabicyclo[4.2.0]octan-2-yl]-2-(dimethylamino)-6-ethyl-8-oxo-5H,8H-pyrido[2,3-b]pyrazin-5-yl} acetamide] | –
> 6.30 | 7.30 to 8.30 | CCc1c(N2CCN(C(=O)c3ncnc(C)c3O)[C@H]3CC[C@@H]32)c(=O)c2nc(C)cnc2n1CC(=O)Nc1ccc(C(F)(F)F)cc1Cl [I-262, N-[2-chloro-4-(trifluoromethyl)phenyl]-2-{6-ethyl-7-[(1S,6S)-5-(5-hydroxy-6-methylpyrimidine-4-carbonyl)-2,5-diazabicyclo[4.2.0]octan-2-yl]-2-methyl-8-oxo-5H,8H-pyrido[2,3-b]pyrazin-5-yl}acetamide] | –
> 6.30 | ≥ 8.30 | CCc1c(N2CCN(C(=O)c3ncc4c(c3O)CCO4)CC2)c(=O)c2nc(N(C)C3CC3)cnc2n1CC(=O)Nc1ccc(C(F)(F)F)cc1Cl [I-194, N-[2-chloro-4-(trifluoromethyl)phenyl]-2-{2-[cyclopropyl(methyl)amino]-6-ethyl-7-(4-{4-hydroxy-2H,3H-furo[2,3-c]pyridine-5-carbonyl}piperazin-1-yl)-8-oxo-5H,8H-pyrido[2,3-b]pyrazin-5-yl}acetamide] | –
> 6.30 | 7.30 to 8.30 | CCc1c(N2CCN(C(=O)c3ncnc(C)c3O)[C@H]3CC[C@@H]32)c(=O)c2nc(N(C)C3CCC(O)C3)cnc2n1CC(=O)Nc1ccc(C(F)(F)F)cc1Cl (stereo partly drawn) [I-288, N-[2-chloro-4-(trifluoromethyl)phenyl]-2-{6-ethyl-7-[(1S,6S)-5-(5-hydroxy-6-methylpyrimidine-4-carbonyl)-2,5-diazabicyclo[4.2.0]octan-2-yl]-2-[(3-hydroxycyclopentyl)(methyl)amino]-8-oxo-5H,8H-pyrido[2,3-b]pyrazin-5-yl}acetamide] | –
< 5.30 | 7.00 to 7.30 | CCc1c(N2CCN(C(=O)c3ncnc(C)c3O)C3(CC3)C2)c(=O)c2nc(N(C)C)cnc2n1CC(=O)Nc1ccc(C(F)(F)F)cc1Cl [I-176, N-[2-chloro-4-(trifluoromethyl)phenyl]-2-[2-(dimethylamino)-6-ethyl-7-[4-(5-hydroxy-6-methylpyrimidine-4-carbonyl)-4,7-diazaspiro[2.5]octan-7-yl]-8-oxo-5H,8H-pyrido[2,3-b]pyrazin-5-yl]acetamide] | –
